Measured values: PubChem BioAssay AID1745844 (Carcinogenic Potency Database (CPDB), 2022)

System: rodent lifetime carcinogenesis bioassay, tumor incidence TD50
Assay: carcinogenic potency in animals, long-term in vivo studies, CPDB compilation (AID 1745844)
Details: mouse, strain B6C3F1, inhaled

C=CC=C
TD50 (females, site: Harderian gland, lesion: adenocarcinoma + adenoma + adenoma, bilateral, dosed 83 weeks, study length 104 weeks): 26.2 mg/kg/day | TD50 (females, site: Harderian gland, lesion: adenoma + adenoma, bilateral, dosed 83 weeks, study length 104 weeks): 26.2 mg/kg/day | TD50 (females, site: Zymbal's gland, lesion: adenoma + carcinoma, dosed 83 weeks, study length 104 weeks): 3540 mg/kg/day | TD50 (females, site: all sites + forestomach + Harderian gland + heart + liver + lung + mammary gland + ovary, lesion: histiocytic sarcoma + malignant lymphoma, mixed type + malignant lymphoma, lymphocytic type + malignant lymphoma, undifferenti, dosed 83 weeks, study length 104 weeks): 6.79 mg/kg/day | TD50 (females, site: all sites + forestomach + heart + liver + lung + mammary gland + ovary, lesion: malignant lymphoma, NOS + squamous-cell papilloma + hemangiosarcoma + hepatocellular adenoma + hepatocellular carcinoma + alveolar, dosed 61 weeks, study length 61 weeks): 53 mg/kg/day | TD50 (females, site: all sites, lesion: hemangioma + hemangiosarcoma, dosed 83 weeks, study length 104 weeks): 35 mg/kg/day | TD50 (females, site: all sites, lesion: hemangiosarcoma, dosed 83 weeks, study length 104 weeks): 44.2 mg/kg/day | TD50 (females, site: all sites, lesion: histiocytic sarcoma + malignant lymphoma, mixed type + malignant lymphoma, lymphocytic type + malignant lymphoma, undifferenti, dosed 83 weeks, study length 104 weeks): 27.4 mg/kg/day | TD50 (females, site: all sites, lesion: histiocytic sarcoma, dosed 83 weeks, study length 104 weeks): 125 mg/kg/day | TD50 (females, site: all sites, lesion: malignant lymphoma, NOS, dosed 61 weeks, study length 61 weeks): 270 mg/kg/day | TD50 (females, site: all sites, lesion: malignant lymphoma, lymphocytic type, dosed 83 weeks, study length 104 weeks): 74.9 mg/kg/day | TD50 (females, site: all sites, lesion: malignant lymphoma, mixed type + malignant lymphoma, lymphocytic type + malignant lymphoma, undifferentiated type + malignant, dosed 83 weeks, study length 104 weeks): 35.2 mg/kg/day | TD50 (females, site: any site (literature study), lesion: several types, types named in the paper, dosed 61 weeks, study length 61 weeks): 41.5 mg/kg/day | TD50 (females, site: any site (literature study), lesion: several types, types named in the paper, dosed 83 weeks, study length 104 weeks): 6.28 mg/kg/day | TD50 (females, site: forestomach, lesion: papilloma, NOS + squamous-cell carcinoma + squamous-cell papilloma, dosed 61 weeks, study length 61 weeks): 462 mg/kg/day | TD50 (females, site: forestomach, lesion: papilloma, NOS + squamous-cell papilloma, dosed 61 weeks, study length 61 weeks): 483 mg/kg/day | TD50 (females, site: forestomach, lesion: squamous-cell carcinoma + squamous-cell papilloma, dosed 61 weeks, study length 61 weeks): 396 mg/kg/day | TD50 (females, site: forestomach, lesion: squamous-cell carcinoma + squamous-cell papilloma, dosed 83 weeks, study length 104 weeks): 83.9 mg/kg/day | TD50 (females, site: forestomach, lesion: squamous-cell carcinoma, dosed 83 weeks, study length 104 weeks): 257 mg/kg/day | TD50 (females, site: forestomach, lesion: squamous-cell papilloma, dosed 61 weeks, study length 61 weeks): 461 mg/kg/day | TD50 (females, site: forestomach, lesion: squamous-cell papilloma, dosed 83 weeks, study length 104 weeks): 126 mg/kg/day | TD50 (females, site: heart + liver + subcutaneous tissue, lesion: hemangiosarcoma, dosed 61 weeks, study length 61 weeks): 147 mg/kg/day | TD50 (females, site: heart, lesion: hemangiosarcoma, dosed 61 weeks, study length 61 weeks): 283 mg/kg/day | TD50 (females, site: heart, lesion: hemangiosarcoma, dosed 83 weeks, study length 104 weeks): 104 mg/kg/day | TD50 (females, site: kidney, lesion: tubule adenoma, dosed 83 weeks, study length 104 weeks): 1060 mg/kg/day | TD50 (females, site: liver, lesion: hepatocellular adenoma + hepatocellular carcinoma + neoplastic nodule, dosed 61 weeks, study length 61 weeks): 1170 mg/kg/day | TD50 (females, site: liver, lesion: hepatocellular adenoma + hepatocellular carcinoma + neoplastic nodule, dosed 83 weeks, study length 104 weeks): 22.8 mg/kg/day | TD50 (females, site: liver, lesion: hepatocellular adenoma + hepatocellular carcinoma, dosed 61 weeks, study length 61 weeks): 1170 mg/kg/day | TD50 (females, site: liver, lesion: hepatocellular adenoma + hepatocellular carcinoma, dosed 83 weeks, study length 104 weeks): 22.8 mg/kg/day | TD50 (females, site: liver, lesion: hepatocellular adenoma, dosed 61 weeks, study length 61 weeks): 1590 mg/kg/day | TD50 (females, site: liver, lesion: hepatocellular adenoma, dosed 83 weeks, study length 104 weeks): 28.5 mg/kg/day | TD50 (females, site: liver, lesion: hepatocellular carcinoma, dosed 83 weeks, study length 104 weeks): 50.5 mg/kg/day | TD50 (females, site: lung, lesion: alveolar/bronchiolar adenoma + alveolar/bronchiolar carcinoma + adenocarcinoma, dosed 83 weeks, study length 104 weeks): 12.4 mg/kg/day | TD50 (females, site: lung, lesion: alveolar/bronchiolar adenoma + alveolar/bronchiolar carcinoma, dosed 61 weeks, study length 61 weeks): 203 mg/kg/day | TD50 (females, site: lung, lesion: alveolar/bronchiolar adenoma + alveolar/bronchiolar carcinoma, dosed 83 weeks, study length 104 weeks): 13.8 mg/kg/day | TD50 (females, site: lung, lesion: alveolar/bronchiolar adenoma, dosed 61 weeks, study length 61 weeks): 259 mg/kg/day | TD50 (females, site: lung, lesion: alveolar/bronchiolar adenoma, dosed 83 weeks, study length 104 weeks): 20.3 mg/kg/day | TD50 (females, site: lung, lesion: alveolar/bronchiolar carcinoma + adenocarcinoma, dosed 83 weeks, study length 104 weeks): 23.9 mg/kg/day | TD50 (females, site: lung, lesion: alveolar/bronchiolar carcinoma, dosed 61 weeks, study length 61 weeks): 227 mg/kg/day | TD50 (females, site: mammary gland, lesion: acinar-cell carcinoma, dosed 61 weeks, study length 61 weeks): 1030 mg/kg/day | TD50 (females, site: mammary gland, lesion: adenoacanthoma, dosed 83 weeks, study length 104 weeks): 87.7 mg/kg/day | TD50 (females, site: mammary gland, lesion: adenocarcinoma + adenoacanthoma + mixed tumor, malignant, dosed 83 weeks, study length 104 weeks): 47.4 mg/kg/day | TD50 (females, site: mammary gland, lesion: adenocarcinoma, dosed 83 weeks, study length 104 weeks): 93.3 mg/kg/day | TD50 (females, site: mammary gland, lesion: mixed tumor, malignant, dosed 83 weeks, study length 104 weeks): 2710 mg/kg/day | TD50 (females, site: ovary, lesion: adenoma + mixed tumor, benign, dosed 83 weeks, study length 104 weeks): 78.9 mg/kg/day | TD50 (females, site: ovary, lesion: adenoma, dosed 83 weeks, study length 104 weeks): 217 mg/kg/day | TD50 (females, site: ovary, lesion: granulosa-cell carcinoma + granulosa-cell tumor, dosed 61 weeks, study length 61 weeks): 370 mg/kg/day | TD50 (females, site: ovary, lesion: granulosa-cell carcinoma, dosed 61 weeks, study length 61 weeks): 7580 mg/kg/day | TD50 (females, site: ovary, lesion: granulosa-cell tumor, benign + granulosa-cell tumor, bilateral, dosed 83 weeks, study length 104 weeks): 98 mg/kg/day | TD50 (females, site: ovary, lesion: granulosa-cell tumor, benign + granulosa-cell tumor, malignant, dosed 83 weeks, study length 104 weeks): 65.4 mg/kg/day | TD50 (females, site: ovary, lesion: granulosa-cell tumor, malignant, dosed 83 weeks, study length 104 weeks): 198 mg/kg/day | TD50 (females, site: ovary, lesion: mixed tumor, benign, dosed 83 weeks, study length 104 weeks): 202 mg/kg/day | TD50 (females, site: subcutaneous tissue, lesion: neurofibrosarcoma + sarcoma, dosed 83 weeks, study length 104 weeks): 128 mg/kg/day | TD50 (females, site: subcutaneous tissue, lesion: sarcoma, dosed 83 weeks, study length 104 weeks): 131 mg/kg/day | TD50 (males, site: Harderian gland, lesion: adenocarcinoma + adenocarcinoma, bilateral, dosed 13 weeks, study length 104 weeks): 63.5 mg/kg/day
